{
  "source": "paper PMC5295762",
  "about": "“Verticillin A Inhibits Leiomyosarcoma and Malignant Peripheral Nerve Sheath Tumor Growth via Induction of Apoptosis” (Clinical & experimental pharmacology, 2016)",
  "key": {"MPNST724 xenografts": {"tested_on": "MPNST724 xenografts", "assay": "MPNST724 xenograft model", "format": "in vivo, SCID mice", "protocol": "Six week old female SCID mice (Taconic Biosciences, Hudson, NY, USA; model ^#CB17SC) were injected subcutaneously with 1 × 10^6 MPNST724 cells into the flank. Once tumors reached 0.5 cm, mice were allocated into three arms (10 mice per arm) and treatment via intraperitoneal injections was initiated: Vehicle (5% ethanol/15% cremophor EL/80% PBS), verticillin A (0.25 mg/kg every other day), or verticillin A (0.5 mg/kg every other day). Mice were weighed and tumors were measured twice weekly. Mice were euthanized once tumors in the control group grew to ~1.5 cm. Final tumor volumes and weights were measured, and tumors were processed for IHC analysis.\nKi67 (Vector Laboratories) and cleaved caspase 3 (Cell Signaling) antibodies were used to identify the effect of verticillin A on proliferation and apoptosis, respectively. IHC staining was conducted at Nationwide Children’s Hospital (Columbus, OH) and analysis was performed at the Polaris Innovation Center (The Ohio State University, Columbus, OH, USA). IHC samples and analyses were verified by pathologist, O. Hans Iwenofu, M.D. (The Ohio State University, Department of Pathology, Columbus, OH, USA).\n(§1) In vitro analyses were performed in triplicate. Mean ± SEM (standard error mean) calculations and statistical analyses were performed for all cell-based assays, and EC50 values were computed using GraphPad Prism version 6.00 (for Windows, GraphPad Software, La Jolla California USA, www.graphpad.com). All Student t tests performed were unpaired and two-sided. The average tumor volume (mm^3) and weight ([…]) for each study arm was measured and recorded. Mean ± SEM was calculated for each treatment group, and end-point analyses determined using unpaired two-sided t test was utilized to determine variances. *p ≤ 0.05; **p ≤ 0.01; ***p ≤ 0.001."}, "HASMC": {"tested_on": "HASMC", "assay": "Cleaved caspase 3/7 activity, HASMC", "format": "cell-based, human", "conditions": "24 h", "protocol": "(§2) Apoptosis was measured by quantifying cleaved-caspase 3 and cleaved-caspase 7 activity using Cell Event Caspase 3/7 Green Detection Reagent (Life Technologies, Carlsbad, CA, USA) in the Incucyte Zoom system (Essen BioScience, Ann Arbor, MI, USA). Cells were plated at a density of 4,200 cells per well and allowed to adhere. The cells were then treated with DMSO or 10, 50, or 100 nM verticillin A for 24 h, and caspase activity was monitored using fluorescent Cell Event Caspase 3/7 Reagent (5 µM final concentration). Endpoint analysis was performed in each well using a final concentration of 10 µM Vybrant DyeCycle Green Stain (Life Technologies, Carlsbad, CA, USA) in complete DMEM. Apoptosis was confirmed using the Apoptosis Detection Kit (BD Pharmagen, San Diego, CA, USA) in complete DMEM. Per supplier instructions, 1 × 10^6 cells/mL were stained with 5 µL Annexin V-FITC and 5 µL propidium iodide following 24 h treatment with DMSO or 10, 50, or 100 nM verticillin A and analyzed via FACS analysis (LSR II, BD Pharmagen, San Diego, CA, USA)."}, "[1]": {"tested_on": "HASMC (human aortic smooth muscle cells)", "assay": "MTS cell viability analysis, HASMC", "format": "cell-based", "protocol": "(§3) MTS analysis was performed using CellTiter96 Aqueous Non-Radioactive Cell Proliferation Assay kit (Promega, Madison, WI, USA) as specified by the manufacturer. Cells were seeded at a density of 5,000 cells per well, and allowed to adhere overnight. Cellular viability was assessed 24 h after treatment with DMSO (control), or 10, 50, or 100 nM verticillin A, and absorbance was measured at 490 nm wavelength.\nas §1"}, "[2]": {"tested_on": "HepG2 liver carcinoma cells", "set-up": "method as in PMID 21911457", "conditions": "cited from earlier work"}, "SKLMS1 cells [3]": {"tested_on": "SKLMS1 cells", "assay": "MTS cell viability analysis, SKLMS1", "format": "cell-based", "protocol": "as §3, §1"}, "LMS1 cells [4]": {"tested_on": "LMS1 cells", "assay": "MTS cell viability analysis, LMS1", "format": "cell-based", "protocol": "as §3, §1"}, "MPNST and LMS cell lines [5]": {"tested_on": "MPNST and LMS cell lines", "assay": "Cell cycle analysis (PI, FACS)", "format": "cell-based", "conditions": "MPNST and LMS cells, 24 h treatment", "protocol": "Cells were synchronized by 16 h starvation prior to treatment with DMSO, 10, 50, or 100 nM of verticillin A for 24 h. Attached and floating cells were collected following treatment and centrifuged for 5 min at 2500 RPM. Supernatant was removed and cells were washed twice with cold PBS. Cells were centrifuged (2500 RPM/5 min) and resuspended in 70% ethanol and fixed overnight at −20° C. Cells were then centrifuged at (2500 RPM/5 min), and ethanol was removed. Subsequently, cells were resuspended in 400 µL PI stain (0.05 mg/mL/ 1 mg/mL sodium citrate/ 50 µL Triton-X-100/ 50 µL RNase A, brought to 50 mL with PBS) and analyzed via LSR II FACS analysis."}, "LMS1 cells [6]": {"tested_on": "LMS1 cells", "assay": "Annexin V/PI FACS analysis, LMS1", "format": "cell-based", "conditions": "LMS1, 24 h treatment, concentration not given", "protocol": "as §2"}, "HSC": {"tested_on": "HSC", "assay": "Cleaved caspase 3/7 activity, HSC", "format": "cell-based, human", "conditions": "24 h", "protocol": "as §2"}, "SW620 colon cancer cells": {"tested_on": "SW620 colon cancer cells", "set-up": "method as in PMID 21911457", "conditions": "cited from earlier work"}, "MPNST and LMS cell lines [7]": {"tested_on": "MPNST and LMS cell lines", "assay": "Cleaved caspase 3/7 activity, MPNST and LMS cell lines", "format": "cell-based", "conditions": "all MPNST and LMS cell lines", "protocol": "as §2"}, "MPNST724 cells [8]": {"tested_on": "MPNST724 cells", "assay": "MTS cell viability analysis, MPNST724", "format": "cell-based, human", "protocol": "as §3, §1"}, "MPNST724 cells [9]": {"tested_on": "MPNST724 cells", "assay": "Annexin V/PI FACS analysis, MPNST724", "format": "cell-based, human", "conditions": "MPNST724, 24 h treatment, concentration not given", "protocol": "as §2"}, "ST88 cells": {"tested_on": "ST88 cells", "assay": "MTS cell viability analysis, ST88", "format": "cell-based, human", "conditions": "24 h", "protocol": "as §3, §1"}, "MPNST and LMS cell lines [10]": {"tested_on": "MPNST and LMS cell lines", "assay": "Clonogenic analysis", "format": "cell-based", "conditions": "all doses, 24 h treatment then 10 days recovery", "protocol": "Cells were seeded at 800 cells per well in a 6-well plate (9.5 cm^2) and allowed to attach overnight prior to treatment with DMSO or varying concentrations of verticillin A. Cells were treated for 24 h, then changed to recovery media and allowed to continue to grow for 10 days. Colonies were stained using 0.5% crystal violet solution in methanol for 30 min. Staining solution was removed, wells were washed with deionized H2O, and stained colonies were imaged and counted."}, "[11]": {"tested_on": "HSC (human Schwann cells)", "assay": "MTS cell viability analysis, HSC", "format": "cell-based", "protocol": "as §3, §1"}, "SKLMS1 cells [12]": {"tested_on": "SKLMS1 cells", "assay": "Annexin V/PI FACS analysis, SKLMS1", "format": "cell-based", "conditions": "SKLMS1, 24 h treatment, concentration not given", "protocol": "as §2"}, "S462 cells [13]": {"tested_on": "S462 cells", "assay": "MTS cell viability analysis, S462", "format": "cell-based, human", "protocol": "as §3, §1"}, "S462 cells [14]": {"tested_on": "S462 cells", "assay": "Annexin V/PI FACS analysis, S462", "format": "cell-based, human", "conditions": "S462, 24 h treatment, concentration not given", "protocol": "as §2"}, "[15]": {"conditions": "0.5 mg/kg intraperitoneal every other day, day 11"}, "[16]": {"conditions": "MPNST724 xenograft tumors, 0.5 mg/kg"}, "[17]": {"conditions": "Homo sapiens, MTS, 24 h treatment"}},
  "data": [
    {"compound": "CN1C(=O)C23SSC1(C)C(=O)N2C1Nc2ccccc2C1(C12c4ccccc4NC1N1C(=O)C4(C)SSC1(C(=O)N4C)C2O)C3O", "note": "(stereo not shown) [verticillin A]", "values": [
      {"measurement": "tumor volume", "setting": "MPNST724 xenografts; 0.25 mg/kg intraperitoneal every other day, day 11", "result": 355.89, "unit": "mm^3"},
      {"measurement": "verticillin A-induced mortality", "setting": "MPNST724 xenografts; 0.5 mg/kg arm, 10 mice per arm", "result": 2, "unit": "mice"},
      {"measurement": "toxicity signs in mice", "setting": "MPNST724 xenografts; 0.5 mg/kg intraperitoneal every other day", "result": "reduced grooming tendencies and mild weight loss"},
      {"measurement": "tumor volume", "setting": "MPNST724 xenografts; [15]", "result": 160.92, "unit": "mm^3"},
      {"measurement": "tumor weight", "setting": "MPNST724 xenografts; [15]", "result": 0.2, "unit": "g"},
      {"measurement": "decrease in Ki67 proliferation marker expression (IHC)", "setting": "MPNST724 xenografts; [16]", "result": "~40", "unit": "%"},
      {"measurement": "increase in cleaved caspase 3 expression (IHC)", "setting": "MPNST724 xenografts; [16]", "result": 5.5, "unit": "fold"},
      {"measurement": "toxicity signs in mice", "setting": "MPNST724 xenografts; lower dose (0.25 mg/kg)", "result": "Minor signs of toxicity"},
      {"measurement": "cleaved caspase 3/7 activity", "setting": "HASMC", "result": 1.2, "unit": "fold change"},
      {"measurement": "effect on cell viability", "setting": "[1]; 100 nM", "result": "no effect"},
      {"measurement": "EC50", "setting": "[1]; [17]", "result": 251, "unit": "nM"},
      {"measurement": "cell cycle effect", "setting": "[2]", "result": "no changes in cell cycle progression"},
      {"measurement": "EC50", "setting": "SKLMS1 cells [3]; Homo sapiens, SK-LMS-1, SKLMS1, MTS, 24 h treatment", "result": 74.6, "unit": "nM"},
      {"measurement": "effect on cell viability", "setting": "SKLMS1 cells [3]; SKLMS1, 10 nM, 24 h", "result": "exhibited tolerance"},
      {"measurement": "cellular growth reduction", "setting": "SKLMS1 cells [3]; SKLMS1, 100 nM, 24 h", "result": 57, "unit": "%"},
      {"measurement": "effect on cell viability", "setting": "LMS1 cells [4]; LMS1, 10 nM, 24 h", "result": "marked inhibitory effect"},
      {"measurement": "cellular growth reduction", "setting": "LMS1 cells [4]; LMS1, 100 nM, 24 h", "result": 96.7, "unit": "%"},
      {"measurement": "EC50", "setting": "LMS1 cells [4]; LMS1, MTS, 24 h treatment", "result": 10.7, "unit": "nM"},
      {"measurement": "cell cycle arrest", "setting": "MPNST and LMS cell lines [5]", "result": "No substantial arrest in cell cycle progression"},
      {"measurement": "apoptosis (Annexin V/PI)", "setting": "LMS1 cells [6]", "result": "73.4 ± 12.7", "unit": "%"},
      {"measurement": "cleaved caspase 3/7 activity", "setting": "HSC", "result": 1.1, "unit": "fold change"},
      {"measurement": "cell cycle effect", "setting": "SW620 colon cancer cells", "result": "induce G2 cell cycle arrest"},
      {"measurement": "increase in cleaved caspase 3/7 activity", "setting": "MPNST and LMS cell lines [7]", "result": "nearly two-fold increase"},
      {"measurement": "EC50", "setting": "MPNST724 cells [8]; Homo sapiens, MPNST724, MTS, 24 h treatment", "result": 125, "unit": "nM"},
      {"measurement": "effect on cell viability", "setting": "MPNST724 cells [8]; MPNST724, 10 nM, 24 h", "result": "exhibited tolerance"},
      {"measurement": "cellular growth reduction", "setting": "MPNST724 cells [8]; MPNST724, 100 nM, 24 h", "result": 39.7, "unit": "%"},
      {"measurement": "apoptosis (Annexin V/PI)", "setting": "MPNST724 cells [9]", "result": "34 ± 4.3", "unit": "%"},
      {"measurement": "effect on cell viability", "setting": "ST88 cells; ST88, 10 nM", "result": "marked inhibitory effect"},
      {"measurement": "cellular growth reduction", "setting": "ST88 cells; ST88, 100 nM", "result": 72.7, "unit": "%"},
      {"measurement": "colony formation capacity", "setting": "MPNST and LMS cell lines [10]", "result": "unable to form colonies"},
      {"measurement": "EC50", "setting": "[11]; [17]", "result": 64.9, "unit": "nM"},
      {"measurement": "toxicity to normal cells", "setting": "[11]; highest treatment dose", "result": "toxicity was seen"},
      {"measurement": "apoptosis (Annexin V/PI)", "setting": "SKLMS1 cells [12]", "result": "29.4 ± 2.3", "unit": "%"},
      {"measurement": "EC50", "setting": "S462 cells [13]; Homo sapiens, S462, MTS, 24 h treatment", "result": 26, "unit": "nM"},
      {"measurement": "effect on cell viability", "setting": "S462 cells [13]; S462, 10 nM, 24 h", "result": "marked inhibitory effect"},
      {"measurement": "cellular growth reduction", "setting": "S462 cells [13]; S462, 100 nM, 24 h", "result": 88.7, "unit": "%"},
      {"measurement": "apoptosis (Annexin V/PI)", "setting": "S462 cells [14]", "result": "25.9 ± 3.75", "unit": "%"}
    ]}
  ]
}
